Literature values, collected in patent US7238683B2, “Fused phenylalanine derivatives as dipeptidyl peptidase-iv inhibitors for the treatment or prevention of diabetes” (Merck & Co., Inc., priority 2003, dated 2007).

Assays:
hematopoiesis = settings: mouse, cyclophosphamide-induced neutropenia
DP-IV = target: T1, DP-IV (Homo sapiens, UniProt P27487)
T1 construct: GRP is rapidly degraded in plasma to GRF[3-44]; from tissue
T1 sequence (P27487 whole entry): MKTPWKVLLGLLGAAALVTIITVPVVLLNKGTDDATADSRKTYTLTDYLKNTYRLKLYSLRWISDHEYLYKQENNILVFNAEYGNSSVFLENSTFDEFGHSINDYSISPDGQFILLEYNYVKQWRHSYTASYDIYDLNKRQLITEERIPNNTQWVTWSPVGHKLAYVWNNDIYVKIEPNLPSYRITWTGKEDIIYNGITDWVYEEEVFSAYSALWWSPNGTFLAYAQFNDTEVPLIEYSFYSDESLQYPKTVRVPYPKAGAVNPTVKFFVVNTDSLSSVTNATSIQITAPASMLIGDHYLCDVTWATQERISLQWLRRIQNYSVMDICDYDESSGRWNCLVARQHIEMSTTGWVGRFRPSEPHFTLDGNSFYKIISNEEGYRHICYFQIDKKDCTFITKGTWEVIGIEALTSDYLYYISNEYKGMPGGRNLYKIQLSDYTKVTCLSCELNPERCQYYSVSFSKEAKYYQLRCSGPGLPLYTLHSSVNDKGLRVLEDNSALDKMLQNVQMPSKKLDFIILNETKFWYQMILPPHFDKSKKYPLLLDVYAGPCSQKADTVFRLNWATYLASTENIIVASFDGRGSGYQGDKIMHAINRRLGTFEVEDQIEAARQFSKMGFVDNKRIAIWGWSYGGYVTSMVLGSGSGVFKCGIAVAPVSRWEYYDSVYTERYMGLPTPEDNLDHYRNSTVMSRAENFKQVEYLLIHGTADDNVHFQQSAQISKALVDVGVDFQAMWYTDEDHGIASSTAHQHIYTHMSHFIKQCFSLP

SMILES	effect on hematopoiesis (hematopoiesis)	degradation of GRF in plasma to GRF[3-44] (DP-IV)
CC(C)[C@H](N)C(=O)N1CCC[C@H]1B(O)O [Val-Boro-Pro]	stimulated hematopoiesis	
CC[C@H](C)[C@H](N)C(=O)N1CCC[C@H]1C(=O)N[C@H](C(=O)O)[C@@H](C)CC [diprotin A]		prevented
